According to patent US20040110265A1, “Recovery of enzyme activity from enveloped viruses” (priority 2001, published 2004):

What was measured:
[1] = system: human plasma polymerase; test: Resurrection of plasma polymerase activity after treatment with cysteine-modifying agents; assay type: biochemical
Description: A set of human plasma samples (60% plasma in water) was first incubated with 3 mM of indicated cysteine-modifying substance or water (as control) at room temperature for 1 hour. Serial dilutions of five potentially reactivating substances were then added and the samples were incubated for another hour. Each sample was finally diluted 1:20 and residual RT activity was determined with Cavidi® HS kit Lenti RT. The total reduction in substance concentration between sample incubation and RT assay was 200 times. The RT activities recovered were recalculated into percent of the activity of a control consisting of plasma incubated in absence of additions during both incubation steps.

[2] = target: Jaagsiekte virus (JSV) RT (Sheep pulmonary adenomatosis virus, UniProt P31623); conditions: in foetal calf serum, 60 minutes at 22° C.
Sequence of Jaagsiekte virus (JSV) RT (P31623 866-1446 limits assumed): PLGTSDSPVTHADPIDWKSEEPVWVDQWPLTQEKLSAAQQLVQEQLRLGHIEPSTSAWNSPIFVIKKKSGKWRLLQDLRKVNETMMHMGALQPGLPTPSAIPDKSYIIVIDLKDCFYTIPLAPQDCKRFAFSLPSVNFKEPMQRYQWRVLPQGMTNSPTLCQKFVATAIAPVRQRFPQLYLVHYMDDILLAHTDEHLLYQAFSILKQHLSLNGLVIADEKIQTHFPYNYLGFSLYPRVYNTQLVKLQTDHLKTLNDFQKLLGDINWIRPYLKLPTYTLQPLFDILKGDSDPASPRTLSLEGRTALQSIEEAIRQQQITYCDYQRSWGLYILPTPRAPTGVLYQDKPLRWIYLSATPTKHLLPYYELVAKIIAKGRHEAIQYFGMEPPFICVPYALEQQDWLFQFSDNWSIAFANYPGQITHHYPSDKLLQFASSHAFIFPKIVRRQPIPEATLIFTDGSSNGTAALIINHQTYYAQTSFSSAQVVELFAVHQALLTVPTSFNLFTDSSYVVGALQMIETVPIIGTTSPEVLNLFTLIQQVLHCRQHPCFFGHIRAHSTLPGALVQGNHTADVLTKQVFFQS
Description: (§1) Recombinant wild type HIV 1 RT (▪), Recombinant RT from a Nevirapine resistant HIV 1 mutant (Y181C) (⋄), Jaagsiekte virus (JSV) RT from a sheep lung cancer (▾), […] (FIV) RT (∘), Bovine Leukaemia virus (BLV) RT (♦) and Porcine Endogenous Retrovirus (PERV) RT (●)derived from cell culture were dilute in heat inactivated foetal calf serum. The different virus enzyme preparations and an EDTA plasma sample from a healthy blood donor (□) were incubated with indicated thimerosal concentration at room temperature (22° C.) for 60 minutes. All the samples were diluted 100 fold in an RT assay compatible buffer and the residual RT activity in each sample was then determined. Three RT assays, each adapted to the type of RT measured were used: HIV 1, JSV, and FIV RTs were measured with Cavidi® HS kit Lenti RT BLV RT with Cavidi® HS kit HTLV RT and PERV and human plasma RT with Cavidi® HS kit Mn^2+ RT.

[3] = system: FIV RT; conditions: in foetal calf serum, 60 minutes at 22° C.
Description: as §1

[4] = target: Recombinant RT from a Nevirapine resistant HIV 1 mutant (Y181C) (Human immunodeficiency virus type 1 group M subtype B, UniProt P04585, Y768C); conditions: in foetal calf serum, 60 minutes at 22° C.
Description: as §1

[5] = target: Recombinant wild type HIV 1 RT (Human immunodeficiency virus type 1 group M subtype B, UniProt P04585); conditions: in foetal calf serum, 60 minutes at 22° C.
Description: as §1

[6] = system: human plasma RT; test: Selective destruction of endogenous RT activity in plasma, protocol I; assay type: biochemical; conditions: EDTA plasma with disrupted lymphocytes, 1 hour at room temperature
Description: EDTA plasma with disrupted lymphocytes from a healthy blood donor and FIV diluted in inactivated foetal calf serum (totally devoid of plasma RT activity) were incubated for 1 hour at room temperature with indicated concentration of: A) 5,5′-dithiobis-(2-nitrobensoic acid), B) thimerosal. The samples were separated according to “Protocol for determination of retroviral RT from material which contains RT blocking antibodies”. The RT activities recovered were determined with an RT assay (Cavidi HS-kit Lenti RT).

C[CH2][Hg][S]c1ccccc1C(=O)[O-].[Na+] [Thimerosal]
Conditions required to reactivate polymerase activity treated with the agent ([1]; 3 mM agent, then reactivating substances): quite easily reactivated
Polymerase activity after second incubation with DTT (% of control) ([1]; 3 mM destroying agent first, 1.1 mM DTT): 84%
Polymerase activity after second incubation with MSA (% of control) ([1]; 3 mM destroying agent first, 1.1 mM MSA): 17%
Polymerase activity after second incubation with cysteamine (% of control) ([1]; 3 mM destroying agent first, 1.1 mM cysteamine): 0%
Polymerase activity after second incubation with cysteine (% of control) ([1]; 3 mM destroying agent first, 1.1 mM cysteine): 4%
Polymerase activity after second incubation with glutathione (% of control) ([1]; 3 mM destroying agent first, 1.1 mM glutathione): 12%
Polymerase activity after second incubation with DTT (% of control) ([1]; 3 mM destroying agent first, 3.3 mM DTT): 248%
Polymerase activity after second incubation with MSA (% of control) ([1]; 3 mM destroying agent first, 3.3 mM MSA): 19%
Polymerase activity after second incubation with cysteamine (% of control) ([1]; 3 mM destroying agent first, 3.3 mM cysteamine): 0%
Polymerase activity after second incubation with cysteine (% of control) ([1]; 3 mM destroying agent first, 3.3 mM cysteine): 14%
Polymerase activity after second incubation with glutathione (% of control) ([1]; 3 mM destroying agent first, 3.3 mM glutathione): 21%
Polymerase activity after second incubation with DTT (% of control) ([1]; 3 mM destroying agent first, 10 mM DTT): 377%
Polymerase activity after second incubation with MSA (% of control) ([1]; 3 mM destroying agent first, 10 mM MSA): 7.3%
Polymerase activity after second incubation with cysteamine (% of control) ([1]; 3 mM destroying agent first, 10 mM cysteamine): 2%
Polymerase activity after second incubation with cysteine (% of control) ([1]; 3 mM destroying agent first, 10 mM cysteine): 37%
Polymerase activity after second incubation with glutathione (% of control) ([1]; 3 mM destroying agent first, 10 mM glutathione): 37%
Polymerase activity after second incubation with DTT (% of control) ([1]; 3 mM destroying agent first, 30 mM DTT): 448%
Polymerase activity after second incubation with MSA (% of control) ([1]; 3 mM destroying agent first, 30 mM MSA): 3.4%
Polymerase activity after second incubation with cysteamine (% of control) ([1]; 3 mM destroying agent first, 30 mM cysteamine): 1%
Polymerase activity after second incubation with cysteine (% of control) ([1]; 3 mM destroying agent first, 30 mM cysteine): 68%
Polymerase activity after second incubation with glutathione (% of control) ([1]; 3 mM destroying agent first, 30 mM glutathione): 7%
Polymerase activity after second incubation with water (% of control) ([1]; 3 mM destroying agent first, water in second incubation): 0%
Sensitivity of enzyme to thimerosal treatment [2]: totally resistant
Sensitivity of enzyme to thimerosal treatment [3]: most sensitive
Sensitivity of enzyme to thimerosal treatment [4]: most sensitive
Sensitivity of enzyme to thimerosal treatment [5]: totally resistant
Concentration that totally eliminated the human plasma RT activity [6]: > 3 mM
